The text below walks through data of US7928098B2, “Therapeutic and/or preventive agents for a sleep disorder” (Kyowa Hakko Kirin Co., Ltd., priority 2005, dated 2011).

Each structure is given as a SMILES string.

As to `O=C(Nc1nc(-c2ccco2)c(C(=O)C2CCOCC2)s1)c1cccc(F)c1F` [Compound 394, 2,3-Difluoro-N-[4-(2-furyl)-5-(tetrahydropyran-4-ylcarbonyl)thiazol-2-yl]benzamide], the melting point was 154 to 160 °C. The compound `O=C(Nc1nc(-c2ccco2)c(C(=O)C2CCOCC2)s1)c1ccc(F)cc1F` [Compound 395, 2,4-Difluoro-N-[4-(2-furyl)-5-(tetrahydropyran-4-ylcarbonyl)thiazol-2-yl]benzamide] registered a melting point of 213 to 215 °C. In the case of `O=C(Nc1nc(-c2ccco2)c(C(=O)C2CCOCC2)s1)c1cc(F)ccc1F` [Compound 396, 2,5-Difluoro-N-[4-(2-furyl)-5-(tetrahydropyran-4-ylcarbonyl)thiazol-2-yl]benzamide] it was 172 to 174 °C; in that of `O=C(Nc1nc(-c2ccco2)c(C(=O)C2CCOCC2)s1)c1c(F)cccc1F` [Compound 397, 2,6-Difluoro-N-[4-(2-furyl)-5-(tetrahydropyran-4-ylcarbonyl)thiazol-2-yl]benzamide], 168 to 170 °C; in that of `O=C(Nc1nc(-c2ccco2)c(C(=O)C2CCOCC2)s1)c1ccc(F)c(F)c1` [Compound 398, 3,4-Difluoro-N-[4-(2-furyl)-5-(tetrahydropyran-4-ylcarbonyl)thiazol-2-yl]benzamide], 208 to 210 °C. The value for `O=C(Nc1nc(-c2ccco2)c(C(=O)C2CCOCC2)s1)c1cc(F)cc(F)c1` [Compound 399, 3,5-Difluoro-N-[4-(2-furyl)-5-(tetrahydropyran-4-ylcarbonyl)thiazol-2-yl]benzamide] was 259 to 265 °C; that for `O=C(Nc1nc(-c2ccco2)c(C(=O)C2CCOCC2)s1)c1cccc2c1OCCO2` [Compound 400, N-[4-(2-Furyl)-5-(tetrahydropyran-4-ylcarbonyl)thiazol-2-yl]-1,4-benzodioxane-5-carboxamide] was 188 to 190 °C; that for `O=C(Nc1nc(-c2ccco2)c(C(=O)C2CCOCC2)s1)c1ccc2c(c1)OCO2` [Compound 401, N-[4-(2-Furyl)-5-(tetrahydropyran-4-ylcarbonyl)thiazol-2-yl]-1,3-benzodioxol-5-carboxamide] was 194 to 196 °C.

Consider `O=C(Nc1nc(-c2ccco2)c(C(=O)C2CCOCC2)s1)c1cccc2c1OC(F)(F)O2` [Compound 402, 2,2-Difluoro-N-[4-(2-furyl)-5-(tetrahydropyran-4-ylcarbonyl)thiazol-2-yl]-1,3-benzodioxol-4-carboxamide], for which the melting point lay in the range of 206 to 207 °C.

The compound `O=C(Nc1nc(-c2ccco2)c(C(=O)C2CCOCC2)s1)c1ccc2c(c1)OC(F)(F)O2` [Compound 403, 2,2-Difluoro-N-[4-(2-furyl)-5-(tetrahydropyran-4-ylcarbonyl)thiazol-2-yl]-1,3-benzodioxol-5-carboxamide] showed a melting point of 124 to 129 °C.

Take `O=C(Nc1nc(-c2ccco2)c(C(=O)C2CCOCC2)s1)c1ccnc(Cl)c1` [Compound 404, 2-Chloro-N-[4-(2-furyl)-5-(tetrahydropyran-4-ylcarbonyl)-thiazol-2-yl]pyridine-4-carboxamide]: the melting point was 185 to 186 °C. In the case of `Cc1cc(C(=O)Nc2nc(-c3ccco3)c(C(=O)C3CCOCC3)s2)ccn1` [Compound 405, N-[4-(2-Furyl)-5-(tetrahydropyran-4-ylcarbonyl)thiazol-2-yl]-2-methylpyridine-4-carboxamide] it was 169 to 173 °C.

`O=C(Nc1nc(-c2ccco2)c(C(=O)C2CCOCC2)s1)c1cccnc1` [Compound 406, N-[4-(2-Furyl)-5-(tetrahydropyran-4-ylcarbonyl)thiazol-2-yl]pyridine-3-carboxamide] came in with a melting point of 209 to 212 °C.

Compound `O=C(Nc1nc(-c2ccco2)c(C(=O)C2CCOCC2)s1)c1ccc(N2CCOCC2)nc1` [Compound 408, N-[4-(2-Furyl)-5-(tetrahydropyran-4-ylcarbonyl)thiazol-2-yl]-2-morpholinopyridine-5-carboxamide] returned a melting point of 166 to 170 °C.

One may read the melting point as the temperature, or range, at which the solid turns liquid.
